How the values were obtained:
[1] = target: TNFα binding to TNF receptor (ECD-TNFR) (Homo sapiens, UniProt P01375); test: Biacore in-solution competition/enhancement assay, TNFα/compound mix over immobilised ECD-TNFR; settings: Biacore A100/4000, 0.5-1 nM TNFα, highest concentration 20 μM; read-out: EC50 (compound induced enhanced binding of TNFα to TNF receptor)
Method: For this purpose a Biacore A100/4000 was used. […] For example a typical assay may use 20 μ[…] solution of compound. […] Control compounds were tested every 10-15 cycles. […] Background subtraction binding curves were analysed using the BIAevaluation software following standard procedures. The EC50 data was determined using a four parameter logistic fit. […] The RU (resonance unit) value for TNFα in the absence of compound was subtracted from the curves so these now show only the increase in binding induced by the compounds. The progress curves plateau at higher RU values as the concentration of compound increases.

h-TNFα = h-TNFα (Homo sapiens, UniProt P01375); test: Monomer exchange in TNFα trimers by mass spectrometry, compound pre-incubated with human TNFα; assay type: binding; settings: 18 hours; for off-rate from h-TNFα: 1:1 complex with h-TNFα mixed with m-TNFα; for cross species monomer subunit exchange: compound preincubated with h-TNFα, then m-TNFα added
Method: (§1) Human and mouse homotrimers of TNFα (H3 and M3 respectively) were incubated together and aliquots of the solution monitored by mass spectrometry appearance of the cross species heterotrimers. The mass spectrometric analysis confirmed that monomer exchange between native TNFα trimers was able to occur in solution. The exchange rate was slow and was monitored over a course of 4 hours before full equilibration was achieved (data not shown). The mechanism is unknown, although is it unlikely to involve formation of the dimeric forms as none of these were observed. Monomer exchange is likely to be occurring between pure human and mouse trimers, the mixing of mouse and human trimers simply makes this exchange visible by mass spectrometry.
In a second series of experiments an excess of the compound of formula (1) was incubated with Human TNFα, the excess compound of formula (1) was then removed. Mass Spectral analysis confirmed that a 1:1 complex had been formed between the compound of formula (1) and h-TNFα. Mouse TNFα was now added to this sample which was then subjected to mass spectral analysis over a number of hours. After 18 hours there was no observed change in the composition of the sample. […] In addition, there was no evidence of formation of the M3L species and no evidence of formation of the unligated H3 species.
These two experiments were then repeated with the compound of formula (2) instead of the compound of formula (1). The results when the compound of formula (2) was pre-incubated with h-TNFα to give a 1:1 complex and then mixed with unligated m-TNFα were the same as with the compound of formula (1).

m-TNFα = target: T1, m-TNFα (Mus musculus, UniProt P06804); test: Monomer exchange in TNFα trimers by mass spectrometry, compound pre-incubated with mouse TNFα; assay type: binding; settings: for off-rate from m-TNFα: 1:1 complex with m-TNFα mixed with h-TNFα; for cross species monomer subunit exchange: compound preincubated with m-TNFα, then h-TNFα added
T1 sequence (P06804 80-235 limits assumed): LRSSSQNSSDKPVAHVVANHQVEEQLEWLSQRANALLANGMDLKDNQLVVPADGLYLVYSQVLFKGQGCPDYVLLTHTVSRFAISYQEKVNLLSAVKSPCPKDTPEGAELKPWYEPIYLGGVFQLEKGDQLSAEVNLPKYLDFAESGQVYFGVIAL
Method: as §1
The experiment was then repeated in reverse. Excess compound of formula 1 was incubated with Mouse TNFα, the excess compound of formula (1) was then removed. Mass Spectral analysis confirmed that a 1:1 complex had been formed between the compound of formula (1) and m-TNFα. Human TNFα was now added to this sample which was then subjected to mass spectral analysis over a number of hours. […] In addition there was evidence of formation of the ligated human homotrimer (H3L), the unligated mouse homotrimer (M3) and for unbound compound of formula (1) (L). […] Once this complex (M3L) has dissociated, monomer subunit exchange between the H3 and M3 species proceeds and the liberated ligand is then able to form complexes with all 4 trimer species present in solution.

TNFα [2] = target: T2, TNFα (Homo sapiens, UniProt P01375); test: Surface plasmon resonance kinetics of compound binding to immobilised TNFα (Biacore T100/T200); settings: for dissociation half-life (t1/2): from koff; for kon / koff: immobilised TNFα, HBS-P with 5% DMSO; for koff: read-out: dissociation rate constant (koff)
Method: Surface plasmon resonance was used to measure the association rate, the dissociation rate and the affinity of the compounds of formulae (1) and (2) for TNFα (FIGS. 13A and B). For the purpose of this study a Biacore T100/T200 was used.
TNFα was immobilised at pH5 to a level of 5-8 KRU onto a CMS sensor in HBS-P buffer (10 mM HEPES pH 7.4, 0.15 M NaCl, 0.005% Surfactant P20, BIAcore, GE Healthcare). The TNFα was then equilibrated in HBS-P with 5% DMSO for at least 5 hours. The samples were diluted from 10 mM stocks into DMSO matched buffer and left to solubilise for at least 5 hours. The flow rate was 30 μL/min.
This assay was performed by adding 4 or 5 concentrations of compound starting from a highest concentration of 25 μM for compound of formula (1) and 1 μM for compound of formula (2) and then serially diluting this sample. Background subtraction binding curves were analysed using the BIAevaluation software following standard procedures. Binding, affinity and kinetic parameters were determined using Biacore software. The kinetic data were fitted using the levenberg marquardt algorithm.

TNFα [3] = target: T2, TNFα; test: Fluorescence polarization assay, competition with the compound of formula (4) for TNFα; settings: TNFα 50 nM, compound of formula (4) 10 nM, 5% DMSO; read-out: IC50 (inhibition of binding of the compound of formula (4) to TNFα)
Method: The final concentrations of TNFα and the compound of formula (4) were 50 nM and 10 nM respectively in a total assay volume of 25 μl. Plates were read on an Analyst HT reader. An IC50 was calculated using xlfit (4 parameter logistic model) in Activity Base.
C87 was preincubated with TNFα for 1 hour prior to assay against the fluorescent compound (probe). Competition with the fluorescent compound either directly (binding at the same site) or indirectly (disrupting TNF) is detected by a reduction in FP.

Structure (SMILES)	EC50 [1] [nM]	off-rate from h-TNFα (h-TNFα)	cross species monomer subunit exchange (h-TNFα)	off-rate from m-TNFα (m-TNFα)	cross species monomer subunit exchange (m-TNFα)	dissociation half-life (t1/2) (TNFα [2])	kon (TNFα [2]) [M⁻¹ s⁻¹]	koff (TNFα [2]) [s⁻¹]	IC50 (TNFα [3]) [nM]	Kd (TNFα [2]; calculated from koff/kon, read-out: dissociation constant (KD)) [nM]
Cc1ccc(C)c(Cn2c(C(O)c3ccncc3)nc3ccc(-c4cnn(C)c4)cc32)c1 (stereo not shown) [Compound (2), [1-(2,5-Dimethylbenzyl)-6-(1-methyl-1H-pyrazol-4-yl)-1H-benzimidazol-2-yl](pyridin-4-yl)methanol]	280	no measurable off-rate	No monomer subunit exchange was observed	no measurable off-rate	no monomer subunit exchange was observed	> 8 h	1120	2.24e-05	102	
Cc1ccc(C)c(Cn2c(C(O)c3ccncc3)nc3ccccc32)c1 (stereo not shown) [Compound (1), [1-(2,5-Dimethylbenzyl)-1H-benzimidazol-2-yl](pyridin-4-yl)methanol]	298	no measurable off-rate	no cross species monomer subunit exchange was observed	measurable off-rate	did not prevent monomer subunit exchange	over 2 hours	2670	9.46e-05	167	35

— patent US10705094B2, “TNF receptor signaling modulator assay” (UCB Biopharma SRL, priority 2015, dated 2020)
